Measured values as given in PubChem BioAssay (NCI).
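GI50 is the concentration that inhibits growth by half. TGI denotes the concentration required for complete inhibition of growth.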

What was measured:
Test in all cases: NCI-60 cell line screen, 384-well format
786-0 renal = tested on: 786-0 renal
A498 renal = tested on: A498 renal
A549 NSCLC = tested on: A549 NSCLC
BT-549 breast = tested on: BT-549 breast
CAKI-1 renal = tested on: CAKI-1 renal
CCRF-CEM leukemia = tested on: CCRF-CEM leukemia
COLO 205 colon = tested on: COLO 205 colon
EKVX NSCLC = tested on: EKVX NSCLC
HCC-2998 colon = tested on: HCC-2998 colon
HCT-116 colon = tested on: HCT-116 colon
HCT-15 colon = tested on: HCT-15 colon
HL-60(TB) leukemia = tested on: HL-60(TB) leukemia
HOP-62 NSCLC = tested on: HOP-62 NSCLC
HOP-92 NSCLC = tested on: HOP-92 NSCLC
HS 578T breast = tested on: HS 578T breast
HT29 colon = tested on: HT29 colon
IGROV1 ovarian = tested on: IGROV1 ovarian
K-562 leukemia = tested on: K-562 leukemia
KM12 colon = tested on: KM12 colon
LOX IMVI melanoma = tested on: LOX IMVI melanoma
M14 melanoma = tested on: M14 melanoma
MALME-3M melanoma = tested on: MALME-3M melanoma
MCF7 breast = tested on: MCF7 breast
MDA-MB-231 breast = tested on: MDA-MB-231 breast
MDA-MB-468 breast = tested on: MDA-MB-468 breast
MOLT-4 leukemia = tested on: MOLT-4 leukemia
NCI-H23 lung = tested on: NCI-H23 lung
NCI-H322M lung = tested on: NCI-H322M lung
NCI-H460 NSCLC = tested on: NCI-H460 NSCLC
NCI-H522 lung = tested on: NCI-H522 lung
NCI/ADR-RES ovarian = tested on: NCI/ADR-RES ovarian
OVCAR-3 ovarian = tested on: OVCAR-3 ovarian
OVCAR-5 ovarian = tested on: OVCAR-5 ovarian
OVCAR-8 ovarian = tested on: OVCAR-8 ovarian
PC-3 prostate = tested on: PC-3 prostate
RPMI-8226 leukemia = tested on: RPMI-8226 leukemia
RXF 393 renal = tested on: RXF 393 renal
SF-268 CNS = tested on: SF-268 CNS
SF-295 CNS = tested on: SF-295 CNS
SF-539 CNS = tested on: SF-539 CNS
SK-MEL-28 melanoma = tested on: SK-MEL-28 melanoma
SK-MEL-5 melanoma = tested on: SK-MEL-5 melanoma
SK-OV-3 ovarian = tested on: SK-OV-3 ovarian
SN12C renal = tested on: SN12C renal
SNB-19 CNS = tested on: SNB-19 CNS
SNB-75 CNS = tested on: SNB-75 CNS
SW-620 colon = tested on: SW-620 colon
T-47D breast = tested on: T-47D breast
TK-10 renal = tested on: TK-10 renal
U251 glioblastoma = tested on: U251 glioblastoma
UACC-257 melanoma = tested on: UACC-257 melanoma
UACC-62 melanoma = tested on: UACC-62 melanoma
UO-31 renal = tested on: UO-31 renal

Cc1cc(Nc2ncc3c(n2)N(C)C(=O)N(c2cc(NC(=O)c4cccc(C(F)(F)F)c4)ccc2C)C3)n(C)n1
GI50 ([…]-0 renal): 40.1 nM | TGI (786-0 renal): 302 nM | GI50 (A498 renal): 14.2 nM | TGI (A498 renal): 105 nM | GI50 (A549 NSCLC): 17.9 nM | TGI (A549 NSCLC): 162 nM | GI50 (BT-549 breast): 19.9 nM | TGI (BT-549 breast): 73.3 nM | GI50 (CAKI-1 renal): < 10 nM | TGI (CAKI-1 renal): 20.5 nM | GI50 (CCRF-CEM leukemia): 1340 nM | TGI (CCRF-CEM leukemia): 3420 nM | GI50 (COLO 205 colon): < 10 nM | TGI (COLO 205 colon): 128 nM | GI50 (EKVX NSCLC): 40.8 nM | TGI (EKVX NSCLC): 305 nM | GI50 (HCC-2998 colon): 45.8 nM | TGI (HCC-2998 colon): 1090 nM | GI50 (HCT-116 colon): 27.2 nM | TGI (HCT-116 colon): 147 nM | GI50 (HCT-15 colon): 224 nM | TGI (HCT-15 colon): 1390 nM | GI50 (HL-60(TB) leukemia): 21.6 nM | TGI (HL-60(TB) leukemia): 107 nM | GI50 (HOP-62 NSCLC): 87.6 nM | TGI (HOP-62 NSCLC): 534 nM | GI50 (HOP-92 NSCLC): 17.3 nM | TGI (HOP-92 NSCLC): 74.6 nM | GI50 (HS 578T breast): 15.6 nM | TGI (HS 578T breast): 54.3 nM | GI50 (HT29 colon): 16.4 nM | TGI (HT29 colon): 312 nM | GI50 (IGROV1 ovarian): < 10 nM | TGI (IGROV1 ovarian): 34.6 nM | GI50 (K-562 leukemia): < 10 nM | GI50 (KM12 colon): 513 nM | TGI (KM12 colon): > 100000 nM | GI50 (LOX IMVI melanoma): < 10 nM | TGI (LOX IMVI melanoma): 11 nM | GI50 (M14 melanoma): < 10 nM | TGI (M14 melanoma): 28.8 nM | GI50 (MALME-3M melanoma): < 10 nM | GI50 (MCF7 breast): 880 nM | TGI (MCF7 breast): > 100000 nM | GI50 (MDA-MB-231 breast): 11.3 nM | TGI (MDA-MB-231 breast): 87.1 nM | GI50 (MDA-MB-468 breast): 25.1 nM | TGI (MDA-MB-468 breast): 98.2 nM | GI50 (MOLT-4 leukemia): 22.1 nM | TGI (MOLT-4 leukemia): 1360 nM | GI50 (NCI-H23 lung): 24.4 nM | TGI (NCI-H23 lung): 189 nM | GI50 (NCI-H322M lung): 22 nM | TGI (NCI-H322M lung): 137 nM | GI50 (NCI-H460 NSCLC): 52 nM | TGI (NCI-H460 NSCLC): > 100000 nM | GI50 (NCI-H522 lung): < 10 nM | TGI (NCI-H522 lung): 31.3 nM | GI50 (NCI/ADR-RES ovarian): 1650 nM | TGI (NCI/ADR-RES ovarian): 3240 nM | GI50 (OVCAR-3 ovarian): 24.3 nM | TGI (OVCAR-3 ovarian): 198 nM | GI50 (OVCAR-5 ovarian): 34.2 nM | TGI (OVCAR-5 ovarian): 254 nM | GI50 (OVCAR-8 ovarian): 34.1 nM | TGI (OVCAR-8 ovarian): 337 nM | GI50 (PC-3 prostate): 4250 nM | TGI (PC-3 prostate): > 100000 nM | GI50 (RPMI-8226 leukemia): 286 nM | TGI (RPMI-8226 leukemia): 1790 nM | GI50 (RXF 393 renal): < 10 nM | TGI (RXF 393 renal): 87.1 nM | GI50 (SF-268 CNS): < 10 nM | TGI (SF-268 CNS): 13.6 nM | GI50 (SF-295 CNS): 1420 nM | TGI (SF-295 CNS): > 100000 nM | GI50 (SF-539 CNS): 72.6 nM | TGI (SF-539 CNS): 577 nM | GI50 (SK-MEL-28 melanoma): 16.2 nM | TGI (SK-MEL-28 melanoma): 83 nM | GI50 (SK-MEL-5 melanoma): 32.3 nM | TGI (SK-MEL-5 melanoma): 8420 nM | GI50 (SK-OV-3 ovarian): < 10 nM | TGI (SK-OV-3 ovarian): 42.9 nM | GI50 (SN12C renal): 11.1 nM | TGI (SN12C renal): 59.3 nM | GI50 (SNB-19 CNS): 199 nM | TGI (SNB-19 CNS): > 100000 nM | GI50 (SNB-75 CNS): 18.9 nM | TGI (SNB-75 CNS): 77.9 nM | GI50 (SW-620 colon): 69.9 nM | TGI (SW-620 colon): 1280 nM | GI50 (T-47D breast): 25.7 nM | TGI (T-47D breast): 75.1 nM | GI50 (TK-10 renal): 28.8 nM | TGI (TK-10 renal): 120 nM | GI50 (U251 glioblastoma): 25.8 nM | TGI (U251 glioblastoma): 1200 nM | GI50 (UACC-257 melanoma): 33.8 nM | TGI (UACC-257 melanoma): 311 nM | GI50 (UACC-62 melanoma): < 10 nM | TGI (UACC-62 melanoma): 15 nM | GI50 (UO-31 renal): 134 nM | TGI (UO-31 renal): 312 nM
